Bridge positions count the residues as written; N and C are the ends. Ends that are not written are not given here.
How the values were obtained:
[1] = system: patients with chronic idiopathic constipation (CIC); assay: Second phase 3 CIC trial: patient disposition, reasons for discontinuation; settings: All Randomized
[2] = system: patients with chronic idiopathic constipation (CIC); assay: First phase 3 CIC trial: durable overall CSBM responders (primary endpoint); format: in vivo, human; parameters: Odds Ratio (adjusted), durable overall CSBM responders: reference not given here; settings: for Non-Responders, % / Durable Overall CSBM Responders, %: ITT; for Durable Overall CSBM Responders, %: MRA; for proportion of durable overall responders: 12-week treatment, intention-to-treat population, placebo 10.2%; for Odds Ratio (adjusted), durable overall CSBM responders / Difference in Proportions (adjusted), responders minus placebo: adjusted for gender; for Odds Ratio (adjusted), durable overall CSBM responders: CMH
Source text: (§1) Both trials include a two-week pre-treatment baseline period, a 12-week treatment period, and a two-week post-treatment period. The phase 3 CIC program was designed to support regulatory submission in the U. S.
(§2) The primary endpoint for both trials is the proportion of durable overall responders (%), which is the current regulatory endpoint required for U.S. approval in CIC. The FDA has defined a durable overall responder as a patient who fulfills both ≧3 complete spontaneous bowel movements (CSBMs) per week plus an increase of ≧1 CSBM from baseline in the same week, for 9 out of the 12 treatment weeks. In addition, the same patient must be an overall responder for at least 3 of the last 4 treatment weeks in order to be considered a durable overall responder.
(§3) Patients were selected using Rome 3 criteria modified for CIC and had (1) fewer than 3 defecations per week, (2) loose stools occurring rarely without laxatives, (3) inadequate criteria for irritable bowel syndrome with constipation (IBS-C), and (4) at least two of the following applied to at least 25% of defecations: (a) straining during evacuation, (b) lumpy or hard stools, (c) sensation of anorectal obstruction or blockage. Rome 3 requires patients to fulfill the criteria for the last 3 months with symptom onset at least 6 months prior to diagnosis.

[3] = system: patients with chronic idiopathic constipation (CIC); assay: First phase 3 CIC trial: stool consistency, Bristol Stool Form Scale (BSFS) change from baseline; format: in vivo, human; settings: for Change from Baseline in Stool Consistency, Difference from Placebo: overall 12-week; for Change from Baseline in Stool Consistency (BSFS), LS Mean (SE): overall average across the 12-week treatment period, ITT; for mean increase from baseline in BSFS score: placebo 0.77
Source text: as §1, §3

[4] = system: patients with chronic idiopathic constipation (CIC); settings: in vivo
[5] = system: patients with chronic idiopathic constipation (CIC); assay: Second phase 3 CIC trial: durable overall CSBM responders; format: in vivo, human; settings: MRA; for Difference in Proportions (adjusted), durable overall CSBM responders / Odds Ratio (adjusted), durable overall CSBM responders: adjusted for gender
Source text: as §1, §2, §3

[6] = Active Combined (N = 877), ITT Population-Excluding Duplicate Patients
[7] = Active Combined (N = 892), ITT Population
[8] = Active Combined (N = 941), All Randomized (includes Duplicate Patients)
[9] = Plecanatide 3 mg (N = 434), ITT Population-Excluding Duplicate Patients
[10] = Plecanatide 3 mg (N = 443), ITT Population
[11] = Plecanatide 3 mg (N = 470), All Randomized (includes Duplicate Patients)
[12] = Plecanatide 6 mg (N = 443), ITT Population-Excluding Duplicate Patients
[13] = Plecanatide 6 mg (N = 449), ITT Population
[14] = Plecanatide 6 mg (N = 471), All Randomized (includes Duplicate Patients)

Asn^1-Asp^2-Glu^3-Cys^4-Glu^5-Leu^6-Cys^7-Val^8-Asn^9-Val^10-Ala^11-Cys^12-Thr^13-Gly^14-Cys^15-Leu^16 (NDECELCVNVACTGCL; disulfide 4-12, 7-15) [Plecanatide, uroguanylin analogue, guanylate cyclase-C agonist; (C4:C12, C7:C15) bicycle peptide]
Discontinuation before Week 12 (EOT), primary reason Insufficient Therapeutic Effect, (%) ([1]; 3 mg (N = 470)): (0.6) % | Discontinuation before Week 12 (EOT), primary reason Insufficient Therapeutic Effect, (%) ([1]; 6 mg (N = 471)): (0.2) % | Non-Responders, % ([2]; 3 mg (N = 453)): 79.0% | Durable Overall CSBM Responders, % ([2]; 3 mg (N = 453)): 21.0% | proportion of durable overall responders ([2]; 3.0 mg once-a-day): 21.0% | Odds Ratio (adjusted), durable overall CSBM responders ([2]; 3 mg vs placebo): 0.429 | Difference in Proportions (adjusted), responders minus placebo ([2]; 3 mg): 0.107 | Non-Responders, % ([2]; 6 mg (N = 441)): 80.5% | Durable Overall CSBM Responders, % ([2]; 6 mg (N = 441)): 19.5% | proportion of durable overall responders ([2]; 6.0 mg once-a-day): 19.5% | Odds Ratio (adjusted), durable overall CSBM responders ([2]; 6 mg vs placebo): 0.469 | Difference in Proportions (adjusted), responders minus placebo ([2]; 6 mg): 0.094 | Non-Responders, % ([2]; Active Combined (N = 894)): 79.8% | Durable Overall CSBM Responders, % ([2]; Active Combined (N = 894)): 20.2% | Week 1 Change from Baseline in Stool Consistency, Difference from Placebo ([3]; 3 mg): 0.92 | Week 1 Change from Baseline in Stool Consistency, LS Mean (SE) ([3]; 3 mg): 1.50 (0.071) | stool consistency after discontinuation of treatment ([3]; 3.0 mg and 6.0 mg, post-treatment period): returned towards baseline with no indication of an exaggerated or rebound effect | Week 1 Change from Baseline in Stool Consistency, Mean (SD) ([3]; 3 mg, n 414): 1.57 (1.563) | Change from Baseline in Stool Consistency, Difference from Placebo ([3]; 3 mg): 0.76 | Change from Baseline in Stool Consistency (BSFS), LS Mean (SE) ([3]; 3 mg): 1.53 (0.058) | mean increase from baseline in BSFS score ([3]; 3.0 mg): 1.53 | Week 1 Change from Baseline in Stool Consistency, Difference from Placebo ([3]; 6 mg): 0.85 | Week 1 Change from Baseline in Stool Consistency, LS Mean (SE) ([3]; 6 mg): 1.42 (0.072) | Week 1 Change from Baseline in Stool Consistency, Mean (SD) ([3]; 6 mg, n 399): 1.42 (1.640) | Change from Baseline in Stool Consistency, Difference from Placebo ([3]; 6 mg): 0.75 | Change from Baseline in Stool Consistency (BSFS), LS Mean (SE) ([3]; 6 mg): 1.52 (0.059) | mean increase from baseline in BSFS score ([3]; 6.0 mg): 1.52 | Week 1 Change from Baseline in Stool Consistency, Mean (SD) ([3]; Active Combined, n 813): 1.49 (1.602) | serum chemistries, hematology, urinalysis, ECG or vital signs [4]: No clinically relevant abnormalities were observed | Durable Overall CSBM Responders, % [5, 6]: 20.4% | Non-Responders, % [5, 6]: 79.6% | Durable Overall CSBM Responders, % [5, 7]: 20.1% | Non-Responders, % [5, 7]: 79.9% | Durable Overall CSBM Responders, % [5, 8]: 19.7% | Non-Responders, % [5, 8]: 80.3% | Durable Overall CSBM Responders, % [5, 9]: 20.5% | Non-Responders, % [5, 9]: 79.5% | Durable Overall CSBM Responders, % [5, 10]: 20.1% | Non-Responders, % [5, 10]: 79.9% | Durable Overall CSBM Responders, % [5, 11]: 19.8% | Non-Responders, % [5, 11]: 80.2% | Difference in Proportions (adjusted), durable overall CSBM responders ([5]; Plecanatide 3 mg minus Placebo, All Randomized (includes Duplicate Patients)): 0.076 | Difference in Proportions (adjusted), durable overall CSBM responders ([5]; Plecanatide 3 mg minus Placebo, ITT Population): 0.073 | Difference in Proportions (adjusted), durable overall CSBM responders ([5]; Plecanatide 3 mg minus Placebo, ITT Population-Excluding Duplicate Patients): 0.075 | Odds Ratio (adjusted), durable overall CSBM responders ([5]; Plecanatide 3 mg, All Randomized (includes Duplicate Patients)): 0.562 | Odds Ratio (adjusted), durable overall CSBM responders ([5]; Plecanatide 3 mg, ITT Population): 0.586 | Odds Ratio (adjusted), durable overall CSBM responders ([5]; Plecanatide 3 mg, ITT Population-Excluding Duplicate Patients): 0.583 | Durable Overall CSBM Responders, % [5, 12]: 20.3% | Non-Responders, % [5, 12]: 79.7% | Durable Overall CSBM Responders, % [5, 13]: 20.0% | Non-Responders, % [5, 13]: 80.0% | Durable Overall CSBM Responders, % [5, 14]: 19.5% | Non-Responders, % [5, 14]: 80.5% | Difference in Proportions (adjusted), durable overall CSBM responders ([5]; Plecanatide 6 mg minus Placebo, All Randomized (includes Duplicate Patients)): 0.074 | Difference in Proportions (adjusted), durable overall CSBM responders ([5]; Plecanatide 6 mg minus Placebo, ITT Population): 0.072 | Difference in Proportions (adjusted), durable overall CSBM responders ([5]; Plecanatide 6 mg minus Placebo, ITT Population-Excluding Duplicate Patients): 0.073 | Odds Ratio (adjusted), durable overall CSBM responders ([5]; Plecanatide 6 mg, All Randomized (includes Duplicate Patients)): 0.571 | Odds Ratio (adjusted), durable overall CSBM responders ([5]; Plecanatide 6 mg, ITT Population): 0.587 | Odds Ratio (adjusted), durable overall CSBM responders ([5]; Plecanatide 6 mg, ITT Population-Excluding Duplicate Patients): 0.589

Source: patent US20160367623A1, “AGONISTS OF GUANYLATE CYCLASE USEFUL FOR THE TREATMENT OF GASTROINTESTINAL DISORDERS, INFLAMMATION, CANCER AND OTHER DISORDERS” (priority 2015, published 2016)
